Source: patent US8476197B2, “Aminopropenoates as fungicides” (priority 2009, dated 2013)
Marks after values point to notes of the source that are not given here.

Conditions: pH 2.3

Row | SMILES | Log P
1 | CCOC(=O)C(C#N)=C(Nc1ccccc1F)c1cccnc1Cl [Compound 1590] | 2.87
2 | CCCCCCC(C)NC(=C(C#N)C(=O)OCC)c1cccnc1Cl (racemic) [Compound 819] | 4.53
3 | CCOC(=O)C(C#N)=C(Nc1ccc(F)cc1F)c1cccnc1Cl [Compound 1600] | 2.95

Further lines, results first:

Row | Log P | SMILES
4 | 3.02 | COC(=O)C(C#N)=C(NC(C)C(C)C)c1cccnc1Br (centres unmarked) [Compound 942]
5 | 2.63 | CCOC(=O)C(C#N)=C(NC(C)C(C)C)c1cccnc1C (centres unmarked) [Compound 953]
6 | 3.17 | CC(C)C(C)NC(=C(C#N)C(=O)NCC(F)(F)F)c1cccnc1Cl (centres unmarked) [Compound 992]
7 | 3.54 | CCOC(=O)C(C#N)=C(NC(C)C(C)C)c1cccnc1-c1ccc(OC)cc1 (centres unmarked) [Compound 1472]
8 | 2.03^[c]; 2.03^[b] | C=CCOc1ncccc1C(NC(C)c1nccs1)=C(C#N)C(=O)OCC (racemic) [Compound 1506]

Same assay, conditions: pH 2.7

Row | SMILES | Log P
9 | CCOC(=O)C(C#N)=C(NC(C)c1ccccn1)c1c(C)nn(C)c1Cl (racemic) [Compound 136] | 2.49^[a]
10 | CCOC(=O)C(C#N)=C(NCc1ncc(C)s1)c1sccc1Br [Compound 220] | 3.04^[a]
11 | COC(=O)C(C#N)=C(NC(C)c1ccccc1)c1sc(C)nc1C(F)(F)F (mixture of isomers) [Compound 444] | 3.62^[a]
12 | CCOC(=O)C(C#N)=C(NC(C)COCc1ccccc1F)c1cn(C)nc1C(F)F (centres unmarked) [Compound 740] | 3.48^[a]
13 | CCOC(=O)C(C#N)=C(NCc1ncccc1Cl)c1cccnc1Cl [Compound 1412] | 2.78^[a]
14 | COC(=O)C(C#N)=C(NC(C)c1ccc(Cl)cc1)c1cn(C)nc1C(F)F (centres unmarked) [Compound 356] | 3.31^[a]
15 | CCOC(=O)C(C#N)=C(NC(C)CC)c1cccnc1C(F)(F)F (racemic) [Compound 840] | 3.27^[a]
16 | CCOC(=O)C(C#N)=C(NC(C#N)CC)c1cn(C)nc1C(F)F (racemic) [Compound 1251] | 2.45^[a]
17 | CCOC(=O)C(C#N)=C(NC(C)c1sc(C)nc1C)c1sc(C)nc1C(F)(F)F (centres unmarked) [Compound 218] | 3.13^[a]
18 | CCOC(=O)C(C#N)=C(NC(C)c1ccc(Cl)cc1)c1cn(C)nc1OC (racemic) [Compound 506] | 3.51^[a]
19 | COC(=O)C(C#N)=C(NC(C)c1ccc2c(c1)OCO2)c1cccnc1Cl (centres unmarked) [Compound 402] | 2.53^[a]
20 | COC(=O)C(C#N)=C(NC(C)(C)c1ccccc1Cl)c1cccnc1Cl [Compound 393] | 3.15^[a]
21 | CCOC(=O)C(C#N)=C(NC(C#N)c1ccccc1)c1cn(C)nc1C(F)F (centres unmarked) [Compound 1230] | 2.94^[a]
22 | CCOC(=O)C(C#N)=C(NC1CC1C1CC1)c1cccnc1Cl (centres unmarked) [Compound 1634] | 3.13^[a]
23 | CCOC(=O)C(C#N)=C(NCc1nc(C)cs1)c1cn(C)nc1C(F)F [Compound 189] | 2.3^[a]
24 | COC(=O)C(C#N)=C(NC(C)(C)c1ccccc1)c1cccnc1Cl [Compound 370] | 2.98^[a]
25 | CCOC(=O)C(C#N)=C(Nc1ccccc1Br)c1cc(C)oc1C [Compound 422] | 3.99^[a]
26 | CCOC(=O)C(C#N)=C(NCC#N)c1cn(C)nc1C(F)F [Compound 788] | 1.79^[a]
27 | CCOC(=O)C(C#N)=C(Nc1ccc(Cl)cc1)c1sccc1C(F)(F)F [Compound 510] | 4.14^[a]
28 | CCOC(=O)C(C#N)=C(Nc1ccc(SC)cc1)c1cn(C)nc1C(F)F [Compound 474] | 3.19^[a]
29 | C=Cc1nn(C)cc1C(NC(C)c1nccs1)=C(C#N)C(=O)OCC (racemic) [Compound 238] | 2.3^[a]
30 | CCOC(=O)C(C#N)=C(NC(C)c1cccc(OC)c1)c1cn(C)nc1C(F)F (centres unmarked) [Compound 1225] | 3.21^[a]
31 | CCOC(=O)C(C#N)=C(Nc1cccc(SC)c1)c1ccsc1Br [Compound 537] | 4.04^[a]
32 | CCOC(=O)C(C#N)=C(NC(C)c1nccs1)c1sc(Cl)nc1Cl (racemic) [Compound 242] | 3.27^[a]
33 | COC(=O)C(C#N)=C(NC(C)c1nc(C)c(C)s1)c1cn(C)nc1C(F)F (racemic) [Compound 47] | 2.65^[a]

Row | SMILES | Log P
34 | CCOC(=O)C(C#N)=C(Nc1ccccc1SC)c1nc(Cl)ccc1Cl [Compound 502] | 3.99^[a]
35 | CCOC(=O)C(C#N)=C(NC(C)C1CCCO1)c1cn(C)nc1C(F)F (centres unmarked) [Compound 199] | 2.58^[a]
36 | CCOC(=O)C(C#N)=C(NC(C(=O)OC)C(C)C)c1cn(C)nc1C(F)F (centres unmarked) [Compound 675] | 2.84^[a]
37 | CCOC(=O)C(C#N)=C(NC(C)c1nccs1)c1cc(Cl)sc1Cl (centres unmarked) [Compound 1578] | 3.58^[a]
38 | CCOC(=O)C(C#N)=C(NC(C)C1CC1)c1cccnc1Cl (centres unmarked) [Compound 910] | 3.1^[a]
39 | COC(=O)C(C#N)=C(NC(C)c1ccc(C)cc1)c1cccnc1Cl (centres unmarked) [Compound 409] | 3.28^[a]
40 | CCOC(=O)C(C#N)=C(NC1(c2c(F)cccc2F)CC1)c1cccnc1Cl [Compound 543] | 3.39^[a]
41 | CCOC(=O)C(C#N)=C(NC1(C(=O)OC(C)CC)CC1)c1cc(C)oc1C (centres unmarked) [Compound 618] | 3.94^[a]
42 | CCOC(=O)C(C#N)=C(NC(C)c1nccs1)c1ncccc1Br (racemic) [Compound 224] | 2.53^[a]
43 | CCCCCNC(=C(C#N)C(=O)OCC)c1cccnc1Cl [Compound 1175] | 3.53^[a]
44 | COC(=O)C(C#N)=C(NC(C)c1ccc(Cl)c(Cl)c1)c1cccnc1Cl (centres unmarked) [Compound 387] | 3.58^[a]
45 | CCOC(=O)C(C#N)=C(NC(C)c1ccc(Cl)cn1)c1cccnc1Cl (centres unmarked) [Compound 1445] | 3.3^[a]
46 | CCOC(=O)C(C#N)=C(NC(C)c1nccs1)c1ccsc1I (racemic) [Compound 158] | 3.08^[a]
47 | CCOC(=O)C(C#N)=C(NC(C)c1ccccc1Cl)c1cn(C)nc1C(F)F (racemic) [Compound 553] | 3.46^[a]
48 | CC(C)C(C)NC(=C(C#N)C(=O)N(C)C1CC1)c1cccnc1Cl (centres unmarked) [Compound 1513] | 3.02^[a]
49 | CCOC(=O)C(C#N)=C(Nc1ccc(N(C)C)cc1)c1sccc1C(F)(F)F [Compound 484] | 3.89^[a]
50 | CCOC(=O)C(C#N)=C(NC(C)c1nccs1)c1cnccc1Br (racemic) [Compound 257] | 2.88^[a]
51 | CCOC(=O)C(C#N)=C(NC(C)c1nccs1)c1cn(C)nc1C(F)F (centres unmarked) [Compound 326] | 2.44^[a]
52 | CCOC(=O)C(C#N)=C(NC(C)C(=O)NC)c1ccsc1I (centres unmarked) [Compound 646] | 2.07^[a]
53 | CCOC(=O)C(C#N)=C(NC(C)C(=O)NC)c1cn(C)nc1C(F)F (centres unmarked) [Compound 599] | 1.66^[a]
54 | COC(=O)C(C#N)=C(NC1CC1F)c1cccnc1Cl (centres unmarked) [Compound 759] | 1.87^[a]
55 | COC(=O)C(C#N)=C(NC(C)c1ccccc1)c1cccnc1Cl (centres unmarked) [Compound 404] | 2.89^[a]
56 | CCOC(=O)C(C#N)=C(NC(C)c1nccs1)c1nc(SC)ncc1Br (racemic) [Compound 240] | 3.21^[a]
57 | CC(C)C(C)NC(=C(C#N)C(=O)N1CCSC1)c1cccnc1Cl (centres unmarked) [Compound 1618] | 3.1^[a]

Continued, values first:

Row | Log P | SMILES
58 | 3.02^[a] | CCOC(=O)C(C#N)=C(NC(C#N)Cc1ccccc1)c1cccnc1Cl (racemic) [Compound 1259]
59 | 3.23^[a] | CCOC(=O)C(C#N)=C(NC(C)C1CC1)c1cn(C)nc1C(Cl)Cl (racemic) [Compound 1560]
60 | 4.67^[a] | C=CCCCC(C=C)NC(=C(C#N)C(=O)OCC)c1ccsc1Br (racemic) [Compound 1018]
61 | 2.1^[a] | CCOC(=O)C(C#N)=C(NC1(C#N)CC1)c1cn(C)nc1C(F)F [Compound 1132]
62 | 2.04^[a] | CCOC(=O)C(C#N)=C(NCC1(C)COC1)c1cn(C)nc1C(F)F [Compound 1423]
63 | 4.04^[a] | C=CCCCC(C=C)NC(=C(C#N)C(=O)OCC)c1c(C)nn(C)c1Cl (racemic) [Compound 1013]
64 | 2.68^[a] | CCOC(=O)C(C#N)=C(NC(C)CC(=O)Nc1ccccc1C)c1cn(C)nc1C(F)F (centres unmarked) [Compound 1138]
65 | 3.37^[a] | CCOC(=O)C(C#N)=C(NC(CC(F)(F)F)c1ccccc1)c1cn(C)nc1C(F)F (centres unmarked) [Compound 1428]
66 | 2.64^[a] | CCOC(=O)C(C#N)=C(NC1CSC1)c1cccnc1Cl [Compound 1374]
67 | 4.19^[a] | CCOC(=O)C(C#N)=C(NC(C)C(C)C)c1ncc(Cl)cc1Cl (centres unmarked) [Compound 967]
68 | 1.8^[a] | CCONC(=O)C(C#N)=C(NC(C)c1nccs1)c1cccnc1Cl (centres unmarked) [Compound 1598]
69 | 2.54^[a] | CCOC(=O)C(C#N)=C(NCC1(C)CCCO1)c1cn(C)nc1C(F)F (centres unmarked) [Compound 1340]
70 | 4.34^[a] | C=CCOC(=O)C(C#N)=C(NC(C)C(C)C)c1sccc1Br (centres unmarked) [Compound 962]
71 | 4.41^[a] | CCCCCC(C)NC(=C(C#N)C(=O)OC)c1sc(C)nc1C(F)(F)F (racemic) [Compound 852]
72 | 2.44^[a] | C#CC(C)(C)NC(=C(C#N)C(=O)OCC)c1cn(C)nc1OC [Compound 1034]
73 | 3.67^[a] | CCOC(=O)C(C#N)=C(NC(C)C(C)C)c1c(C)nn(C)c1Cl (centres unmarked) [Compound 943]
74 | 3.96^[a] | CCOC(=O)C(C#N)=C(NC(C)C(C)C)c1cc(Cl)ncc1Cl (centres unmarked) [Compound 977]
75 | 3.73^[a] | COC(=O)C(C#N)=C(NC1CCC(C)C(C)C1)c1cccnc1Cl (centres unmarked) [Compound 1070]
76 | 3.35^[a] | CC#CC(C)(C)NC(=C(C#N)C(=O)OC)c1sc(C)nc1C(F)(F)F [Compound 1042]
77 | 2.7^[a] | CCOC(=O)C(C#N)=C(NCC1(C)CCCO1)c1cccnc1Cl (centres unmarked) [Compound 1357]

Same assay, conditions: pH 7.5

Row | SMILES | Log P
78 | CCOC(=O)C(C#N)=C(Nc1ccccc1F)c1cccnc1Cl [Compound 1590] | 2.85
79 | CCOC(=O)C(C#N)=C(NC(C)C=NOC)c1cccnc1Cl (mixture of isomers) [Compound 1322] | 2.49
80 | CCOC(=O)C(C#N)=C(NC(C)C(F)(F)F)c1cccnc1Cl (mixture of isomers) [Compound 806] | 2.9
81 | CCCCCCC(C)NC(=C(C#N)C(=O)OCC)c1cccnc1Cl (racemic) [Compound 819] | 4.55
82 | CCOC(=O)C(C#N)=C(Nc1ccc(F)cc1F)c1cccnc1Cl [Compound 1600] | 2.9
83 | COC(=O)C(C#N)=C(NC(C)CSC)c1cccnc1Cl (centres unmarked) [Compound 575] | 2.38

Further lines, results first:

Row | Log P | SMILES
84 | 2.13 | CCOC(=O)C(C#N)=C(NC(C)CC#N)c1cccnc1Cl (centres unmarked) [Compound 792]
85 | 2.88 | COC(=O)C(C#N)=C(NC(C)C(C)C)c1cccnc1Br (centres unmarked) [Compound 942]
86 | 2.89 | CCOC(=O)C(C#N)=C(NC(C)C(C)C)c1cccnc1C (centres unmarked) [Compound 953]
87 | 3.16 | CC(C)C(C)NC(=C(C#N)C(=O)NCC(F)(F)F)c1cccnc1Cl (centres unmarked) [Compound 992]
88 | 3.59 | CCOC(=O)C(C#N)=C(NC(C)C(C)C)c1cccnc1-c1ccc(OC)cc1 (centres unmarked) [Compound 1472]
89 | 2.03^[c]; 2.03^[b] | C=CCOc1ncccc1C(NC(C)c1nccs1)=C(C#N)C(=O)OCC (racemic) [Compound 1506]
